The experiment addresses T1, human S1P1 receptor (Homo sapiens, UniProt P21453).
T1 construct: expressed in transfected cells; membranes were used
Briefly: GTP γ35S binding assay for S1P1 activity. The conditions noted are these: activity potency from GTP γ35S binding; membranes of cells stably expressing the S1P1 receptor; 30 min at 25° C. Type of experiment: biochemical. How it is done: Compounds were synthesized and tested for S1P1 activity using the GTP γ^35S binding assay. These compounds may be assessed for their ability to activate or block activation of the human S1P1 receptor in cells stably expressing the S1P1 receptor. […] binding was measured in the medium containing (mM) HEPES 25, pH 7.4, MgCl2 10, NaCl 100, dithitothreitol 0.5, digitonin 0.003%, 0.2 nM GTP γ^35S, and 5 μg membrane protein in a volume of 150 μl. Test compounds were included in the concentration range from 0.08 to 5,000 nM unless indicated otherwise. Membranes were incubated with 100 μM 5′-adenylylimmidodiphosphate for 30 min, and subsequently with 10 μM GDP for 10 min on ice. Drug solutions and membrane were mixed, and then reactions were initiated by adding GTP γ^35S and continued for 30 min at 25° C. Reaction mixtures were filtered over Whatman GF/B filters under vacuum, and washed three times with 3 mL of ice-cold buffer (HEPES 25, pH7.4, MgCl2 10 and NaCl 100). Filters were dried and mixed with scintillant, and counted for ^35S activity using a […]. Agonist-induced GTP γ^35S binding was obtained by subtracting that in the absence of agonist. Binding data were analyzed using a non-linear regression method. In case of antagonist assay, the reaction mixture contained 10 nM S1P in the presence of test antagonist at concentrations ranging from 0.08 to 5000 nM.
Background: GTPγS resists hydrolysis and so accumulates on activated G proteins.

The record followed here is US8871755B2, “Alkene azetidine derivatives as sphingosine 1-phosphate (S1P) receptor modulators” (Allergan, Inc., priority 2013, dated 2014).

The structures appear in SMILES notation.

In general, EC50 refers to the concentration that produces a half-maximal response.

T1 sequence (P21453 whole entry): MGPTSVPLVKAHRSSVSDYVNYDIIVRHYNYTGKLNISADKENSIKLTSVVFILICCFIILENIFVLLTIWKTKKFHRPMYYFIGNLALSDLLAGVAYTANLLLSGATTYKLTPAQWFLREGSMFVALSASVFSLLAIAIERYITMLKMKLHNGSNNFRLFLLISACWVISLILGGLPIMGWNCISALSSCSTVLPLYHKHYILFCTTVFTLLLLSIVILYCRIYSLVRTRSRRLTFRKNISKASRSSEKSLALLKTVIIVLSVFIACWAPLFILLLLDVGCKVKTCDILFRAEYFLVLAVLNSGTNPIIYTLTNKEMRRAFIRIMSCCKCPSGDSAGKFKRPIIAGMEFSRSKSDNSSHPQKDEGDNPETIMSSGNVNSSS

With `Cc1ccc(C=C(CCCOc2ccc(CN3CC(C(=O)O)C3)cc2)c2ccsc2)cc1C` [1-(4-{[5-(3,4-dimethylphenyl)-4-(3-thienyl)pent-4-en-1-yl]oxy}benzyl)azetidine-3-carboxylic acid], the response was half-maximal at 36 nM (EC50).

In turn, `Cc1ccc(/C=C(\CCCOc2ccc(CN3CC(C(=O)O)C3)cc2)c2cccc(F)c2F)cc1C` [Compound 1, 1-(4-{[(4E)-4-(2,3-Difluorophenyl)-5-(3,4-dimethylphenyl)pent-4-en-1-yl]oxy}benzyl)azetidine-3-carboxylic acid] displayed an EC50 of 480 nM.

For the compound `Cc1ccc(/C=C(\CCCCSc2ccc(CN3CC(C(=O)O)C3)cc2)c2cc(F)cc(F)c2)cc1C` [Compound 4, 1-(4-{[(5E)-5-(3,5-difluorophenyl)-6-(3,4-dimethylphenyl)hex-5-en-1-yl]sulfanyl}benzyl)azetidine-3-carboxylic acid], the concentration for a half-maximal effect (EC50) amounted to 652 nM.

As for `Cc1ccc(/C=C(\CCCOc2ccc(CN3CC(C(=O)O)C3)cc2)c2cccc(Cl)c2)cc1C` [Compound 5, 1-(4-{[(4E)-4-(3-Chlorophenyl)-5-(3,4-dimethylphenyl)pent-4-en-1-yl]oxy}benzyl)azetidine-3-carboxylic acid], the EC50 came out at 27.9 nM.

`Cc1ccc(/C=C(\CCCOc2ccc(CN3CC(C(=O)O)C3)cc2)c2cc(F)cc(F)c2)cc1C` [Compound 6, 1-(4-{[(4E)-4-(3,5-Difluorophenyl)-5-(3,4-dimethylphenyl)pent-4-en-1-yl]oxy}benzyl)azetidine-3-carboxylic acid] returned an EC50 of 4.21 nM.

Compound `Cc1ccc(/C=C(\CCC[S+]([O-])c2ccc(CN3CC(C(=O)O)C3)cc2)c2cc(F)cc(F)c2)cc1C` (stereo not drawn) [Compound 7] gave a half-maximal effective concentration (EC50) of 158 nM.
